# Measured values as given in publication PMC9415509, “Pro-Apoptotic Antitumoral Effect of Novel Acridine-Core Naphthoquinone Compounds against Oral Squamous Cell Carcinoma” (Molecules, 2022).
# “And” between values parts separate entries of the source, which are not always exact repeats. Equal values may be shown once.
# What was measured:
# C57BL/6 female mice = assay: In vivo acute toxicity study; settings: 14 days
# Method: In vivo acute toxicity study. The acute toxicity study for compound 4e was performed in twelve-week-old C57BL/6 female mice via intraperitoneal injection and was approved by the University Animal Ethics Board under registration number 982. All experiments were performed in accordance with Brazilian guidelines and regulations. Dosing and analysis were performed according to 423 OECD guidelines and reviewed by. Each animal group had n = 3 or 4 (as indicated) and received only one intraperitoneal injection (Day 0) of compound 4e dissolved in […] PBS and 3% DMSO. The control group animals received only 3% DMSO in PBS. The first dose of the compound was 100 mg/kg. Subsequent dose levels (200 mg/kg and 400 mg/kg) were determined based on the result obtained from the previous dosing. The animals were examined every day, twice a day, for mortality and morbidity for 14 days, when all animals were anesthetized (ketamine 100 mg/kg and xylazine 10 mg/kg) followed by cervical dislocation. Gross necropsy and histology of the main organs were performed. The animals’ body weights and average food consumption were measured every 7 days. As an indication of morbidity, the following signs were assessed: tremors; convulsion; salivation; diarrhea; lethargy; coma; pain signs; increased rear arching; and mobility impairment. The necropsy included an examination of the external characteristics of the carcass; external body orifices; the abdominal, thoracic, and cranial cavities; organs/tissues of the liver, thymus, right kidney, […], heart, and lung. Major organs were analyzed by histopathology. For more details, see Supplementary Methods.
# [1] = tested on: OSCC cells (SCC-4, SCC-9, SCC-25); assay: MTT cytotoxicity and selectivity, mean over OSCC cell lines; format: cell-based, human
# Method: (§1) Cell viability assay (cytotoxicity) and compound stability assay. The viability of SCC cell lines and primary human fibroblast cells was evaluated using the MTT assay as in [48]. Briefly, the cells were grown in triplicates in 96-well plates (5 × 10^3 cells/well) until confluence. Then, the medium was removed, fresh medium was added, and the cells were returned to the incubator in the presence of different compounds. DMSO at the same concentrations was used as a 100% cell viability control. After 48 h, the cells were incubated with 5 mg/mL MTT reagent (3-(4,5-dimethyl-2-thiazolyl)-2,5-diphenyl-2-H-tetrazolium bromide) (Sigma-Aldrich Co., St. Louis, MO, USA) for 3.5 h. After that, formazan crystals were dissolved in MTT solvent solution (DMSO/methanol 1:1 v/v) and the absorbance at 560 nm was evaluated using an EPOCH microplate spectrophotometer (BioTek Instruments, Winooski, VT, USA) with the background absorbance at 670 nm subtracted.
# Statistical analysis, IC50 calculation. The data are presented as means ±\SD. IC50 values for the MTT assays were obtained by nonlinear regression using the […] […] The selectivity index was calculated as SI = IC50 of the compound in normal oral fibroblast cells/IC50 of the same compound for each oral cancer cell line (SCC-4, SCC-9, and SCC-25) and the mean was calculated when indicated.
# [2] = tested on: Primary normal human gingival fibroblasts; assay: MTT cell viability assay, normal fibroblasts; format: cell-based; settings: Homo sapiens, Fibroblast; primary gingival fibroblasts, 48 h, MTT; read-out: Primary Gingival Fibroblast IC50
# Method: (§2) Cells and reagents. Human SCC-4, SCC-9, and SCC-25 cells, derived from a human oral tongue SCC (squamous cell carcinoma) were obtained from the ATCC (CRL-1624, CRL-1629, and CRL-1628, respectively) and maintained in 1:1 DMEM/F12 (Dulbecco’s modified Eagle medium and Ham’s F12 medium; Gibco (Thermo Fisher, Waltham, MA, USA)) supplemented with 10% (v/v) FBS (fetal bovine serum; Invitrogen, Thermo Fisher, Waltham, MA, USA) and 400 ng/mL hydrocortisone (Sigma-Aldrich Co., St. Louis, MO, USA). Primary normal human gingival fibroblasts were obtained from the ATCC (PCS-201-018) and maintained in DMEM supplemented with 10% (v/v) FBS and were used in a maximum of six passages. The cells were grown in a humidified environment containing 5% CO2 at 37 °C. […] Carboplatin stock was prepared in water (Fauldcarbo®; LibbsFarmacêutica, São Paulo, SP, Brazil) and was used as a standard anticancer compound.
# as §1
# (§3) Statistical analysis, IC50 calculation. The data are presented as means ±\SD. IC50 values for the MTT assays were obtained by nonlinear regression using the […] 5.0 program (Intuitive Software for Science, San Diego, CA, USA) from at least three independent experiments. A dose–response (inhibitor) vs. response curve using the least squares method was used to determine the IC50, SD, and R^2 of the data. The selectivity index was calculated as SI = IC50 of the compound in normal oral fibroblast cells/IC50 of the same compound for each oral cancer cell line (SCC-4, SCC-9, and SCC-25) and the mean was calculated when indicated.
# [3] = MTT cell viability assay, normal fibroblasts; format: cell-based, human; settings: human, primary normal human gingival fibroblasts (ATCC PCS-201-018)
# Method: as §2, §1, §3
# SCC9 cells [4] = assay: Caspase 3/7 activity, flow cytometry; format: cell-based, human; settings: SCC9, 2× IC50, 48 h
# Method: Phosphatidylserine exposure analysis (apoptosis). Cells of the SCC9 cell line were plated in 6-well plates (5 × 10^5 cells/well), trypsinized 48 h after treatment, labeled using the Annexin V-FITC Apoptosis Detection Kit according to the manufacturer’s protocol (#BMS500FI/300, Invitrogen), and analyzed by FACScalibur flow cytometry as in [50]. Furthermore, 5 × 10^4 SCC9 cells were plated in a 24-well plate containing 1 mL of DMEM/F12 with 10% FBS per well. CellEvent™ Caspase-3/7 Reagent (#R37111, Invitrogen) was diluted in a culture medium according to the manufacturer’s instructions. […] The cells were analyzed by flow cytometry at the time of 48 h of treatment.
# SCC9 cells [5] = assay: SubG1 analysis (DNA fragmentation), flow cytometry; format: cell-based, human; settings: SCC9, 72 h of treatment, PI staining
# Method: Cell cycle and SubG1 analysis. To evaluate the action of compound 4e on the cell cycle and DNA fragmentation, cells of the SCC9 cell line were plated in a 6-well plate (5 × 10^5 cells/well). After 48 (cell cycle) or 72 h (DNA fragmentation) of treatment, the cells were trypsinized and stained with propidium iodide (75 µM) in the presence of NP-40. The DNA content was analyzed by collecting 10,000 events using a FACScalibur flow cytometer. The data were analyzed using CellQuest (BD Biosciences, Franklin Lakes, NJ, USA) and FlowJo (Tree Star Inc., Ashland, OR, USA) software as in [49].
compound,measurement,setting,value
"CC1(C)CC(=O)C2=C(C1)NC1=C(C(=O)c3ccccc3C1=O)C2c1ccc(Cl)cc1Cl (stereo not drawn) [4e, 12-(2,4-dichlorophenyl)-3,3-dimethyl-3,4-dihydrobenzo[b]acridine-1,6,11(2H,5H,12H)-trione]",Change in Body Weight,C57BL/6 female mice; 100 mg/kg single i.p. dose,Absent
same,Change in Food Consumption,C57BL/6 female mice; 100 mg/kg single i.p. dose,Absent
same,Gross Necropsy,C57BL/6 female mice; 100 mg/kg single i.p. dose,No alteration
same,Histology,C57BL/6 female mice; 100 mg/kg single i.p. dose,No significant alteration in comparison to control
same,Morbidity,C57BL/6 female mice; 100 mg/kg single i.p. dose,Absent
same,Change in Body Weight,C57BL/6 female mice; 200 mg/kg single i.p. dose,Absent
same,Change in Food Consumption,C57BL/6 female mice; 200 mg/kg single i.p. dose,Absent
same,Gross Necropsy,C57BL/6 female mice; 200 mg/kg single i.p. dose,No alteration
same,Histology,C57BL/6 female mice; 200 mg/kg single i.p. dose,Presence of mild Perivascular and periportal lymphocyte focus and Bronchus-Associated Lymphoid Tissue (BALT)
same,Morbidity,C57BL/6 female mice; 200 mg/kg single i.p. dose,Absent
same,Change in Body Weight,C57BL/6 female mice; 400 mg/kg single i.p. dose,Absent
same,Change in Food Consumption,C57BL/6 female mice; 400 mg/kg single i.p. dose,Absent
same,Gross Necropsy,C57BL/6 female mice; 400 mg/kg single i.p. dose,No alteration
same,Histology,C57BL/6 female mice; 400 mg/kg single i.p. dose,Presence of mild Perivascular and periportal lymphocyte focus and Bronchus-Associated Lymphoid Tissue (BALT)
same,Morbidity,C57BL/6 female mice; 400 mg/kg single i.p. dose,Absent
same,IC50,"[1]; Homo sapiens, mean of SCC4, SCC9, SCC25",30 µM
same,SI (mean selectivity index),[1]; mean over OSCC cell lines vs normal fibroblasts,2.9 and 2.93
same,IC50,[2],88 µM
same,viability at 48 h,[3],> 75%
same,"active caspase 3/7 labeling, cells",SCC9 cells [4],52.4% and ~ 52%
same,"DNA fragmentation (Sub-G1 DNA-content), cells",SCC9 cells [5],25.5% and ~ 25%
